{
  "source": "patent US6916845B2",
  "about": "“Method for prevention and treatment of male and female sexual dysfunction” (priority 1999, dated 2005)",
  "key": {"[1]": {"tested_on": "rabbit's CC smooth muscle", "assay": "Relaxation of PHE pre-contracted corpus cavernosum smooth muscle strips in organ chamber", "type": "cell-based", "conditions": "for effect of pre-treatment on the relaxation effects of icariin: pre-treatment before icariin", "method": "Sixty adults male New Zealand white rabbits(Weight: 2.5-3.0 kg) were used. Rabbits were anesthesia with sodium pentobarbital(50 mg/kg), penis was removed and corpus cavernous tissue were carefully isolated and made into 2×2×6 mm muscle strips for isometric tension was measured in organ chamber in vitro study with polygraph(MP 100 WS:Biopac systems, USA). CC muscle strip was fixed in 10 ml organ chamber containing Tyrode solution and continuously supplied with mixed gas(95% O2 and 5% CO2) and keep temperature at 37° C. The initial resting tensions of muscle strips were set at 2 g and tissue was allowed to equilibrate for 1.5-3.0 hours. Sub-maximal contractile responses to phenylepherine(PHE 5×10^-6 M) were observed and optimal isometric tension was determined. To evaluate the relaxation effects of icariin (the other components magnoflorine, querectin, epimedin A, B and C as the controls) on CC muscle strips, investigated the relaxation effects of different dosage of icariin on muscle strips pre-contracted by PHE. And to investigate the pharmaceutical action mechanism, the effects of […] Nω-nitric-L-arginine(L-NNA), guanylate cyclase antagonist methylene blue and pyrogallol, soluble guanylate cyclase inhibitor 1H-[1,2,4]oxadiazolo[4,3,-a]quinoxalin-1-one (ODQ) on the relaxation effects of icariin on CC."}, "[2]": {"tested_on": "patients", "conditions": "patients on antihypertensive agent; cited from earlier work"}, "[3]": {"tested_on": "adult male rat", "assay": "Intracavernosal press (ICP) changes after intracavernosal administration and cavernous nerve electrical stimulation", "type": "in vivo", "conditions": "for Inhibiting Effect on Icariin induced Relaxation of CC. (ICP changes): 10 minutes after Icariin 100 μl 10^−4M", "method": "Twenty-four male, adult Wistar rats(weight:300-350 g) were used. After anesthetization, the left carotid artery was cannulated to monitor mean arterial pressure (MAP). Bipolar electrodes were positioned on the cavernous nerve (CN); the right cavernous body was cannulated with 26 G needle connected with Biopack MP100 to monitor ICP changes. After intracavemosal administration of 100 μl different concentration Icariin or Reserpine (10^−8M to 10^−4M) respectively, the CN was electrically stimulated (ES) 10 minutes later and ICP and MAP were monitored. In order to investigate the possible mechanism of the effect of icariin on ICP changes, 100 μl different concentration guanylate cyclase inhibitor ODQ (10^−8M-10^−4M) were intracavemosal administrated 10 minutes after Icariin (100 μl 10^−4M) administration into CC, and then the ICP was measured during erection, which was, followed the ES."}, "[4]": {"tested_on": "cGMP formation in rabbit corpus cavernosum", "assay": "cGMP formation in corpus cavernosum of penis stimulated with SNP, radioimmunoassay", "type": "cell-based", "conditions": "in the presence of SNP"}, "[5]": {"tested_on": "PDE4 isolated from human liver tissue", "assay": "Inhibition of cAMP specific PDE4, two-step radioisotope procedure", "type": "biochemical", "method": "PDE5 and PDE4 were isolated from human platelets and liver tissue using a Pharmacia FPLC system and Mono Q column. The cyclic nucleotide PDE5/PDE4 activities in FPLC fractions were determined using a modification of the two-step radioisotope procedure ([^3H]GMP/[^3H]AMP)."}, "[6]": {"tested_on": "cGMP formation in clitoris CC of female rabbits", "assay": "cGMP formation in CC of clitoris stimulated with SNP, radioimmunoassay", "type": "cell-based, rabbit"}},
  "data": [
    {"smiles": "CN(C)c1ccc2nc3ccc(=[N+](C)C)cc-3sc2c1", "note": "[Methylene blue, methylene blue]", "values": [
      {"measurement": "icariin induced relaxation of CC smooth muscle strips after pre-treatment with the named inhibitor", "setting": "[1]; icariin 10^−4M", "value": "13.45 ± 1.12", "unit": "%"},
      {"measurement": "icariin induced relaxation of CC smooth muscle strips after pre-treatment with the named inhibitor", "setting": "[1]; icariin 10^−5M", "value": "2.02 ± 0.45", "unit": "%"},
      {"measurement": "icariin induced relaxation of CC smooth muscle strips after pre-treatment with the named inhibitor", "setting": "[1]; icariin 10^−6M", "value": "0.52 ± 0.68", "unit": "%"},
      {"measurement": "effect of pre-treatment on the relaxation effects of icariin", "setting": "[1]", "value": "significantly inhibited"}
    ]},
    {"smiles": "O=c1c(O)c(-c2ccc(O)c(O)c2)oc2cc(O)cc(O)c12", "note": "[querectin]", "values": [
      {"measurement": "relaxation effects on CC", "setting": "[1]", "value": "no significant relaxation effects"}
    ]},
    {"smiles": "Clc1cccc(Cl)c1NC1=NCCN1", "note": "[clodidine]", "values": [
      {"measurement": "sexual dysfunction associated with the agent, % of patients", "setting": "[2]", "value": 41, "unit": "%"}
    ]},
    {"smiles": "COc1ccc(-c2oc3c(CC=C(C)C)c(OC4OC(CO)C(O)C(O)C4O)cc(O)c3c(=O)c2OC2OC(C)C(O)C(O)C2OC2OC(CO)C(O)C(O)C2O)cc1", "note": "(stereo not drawn) [epimedin A]", "values": [
      {"measurement": "relaxation effects on CC", "setting": "[1]", "value": "no significant relaxation effects"}
    ]},
    {"smiles": "NC(=NCCC[C@H](N)C(=O)O)N[N+](=O)[O-]", "note": "[L-NNA, Nω-nitric-L-arginine]", "values": [
      {"measurement": "icariin induced relaxation of CC smooth muscle strips after pre-treatment with the named inhibitor", "setting": "[1]; icariin 10^−4M", "value": "15.68 ± 1.15", "unit": "%"},
      {"measurement": "icariin induced relaxation of CC smooth muscle strips after pre-treatment with the named inhibitor", "setting": "[1]; icariin 10^−5M", "value": "3.23 ± 0.89", "unit": "%"},
      {"measurement": "icariin induced relaxation of CC smooth muscle strips after pre-treatment with the named inhibitor", "setting": "[1]; icariin 10^−6M", "value": "0.82 ± 0.58", "unit": "%"},
      {"measurement": "effect of pre-treatment on the relaxation effects of icariin", "setting": "[1]", "value": "significantly inhibited"}
    ]},
    {"smiles": "COc1ccc2c(c1O)-c1c(O)c(OC)cc3c1[C@H](C2)[N+](C)(C)CC3", "note": "[magnoflorine]", "values": [
      {"measurement": "relaxation effects on CC", "setting": "[1]", "value": "no significant relaxation effects"}
    ]},
    {"smiles": "O=c1onc2cnc3ccccc3n12", "note": "[ODQ, 1H-[1,2,4]oxadiazolo[4,3,-a]quinoxalin-1-one]", "values": [
      {"measurement": "icariin induced relaxation of CC smooth muscle strips after pre-treatment with the named inhibitor", "setting": "[1]; icariin 10^−4M", "value": "10.45 ± 1.08", "unit": "%"},
      {"measurement": "icariin induced relaxation of CC smooth muscle strips after pre-treatment with the named inhibitor", "setting": "[1]; icariin 10^−5M", "value": "1.85 ± 0.35", "unit": "%"},
      {"measurement": "icariin induced relaxation of CC smooth muscle strips after pre-treatment with the named inhibitor", "setting": "[1]; icariin 10^−6M", "value": "0.42 ± 0.48", "unit": "%"},
      {"measurement": "effect of pre-treatment on the relaxation effects of icariin", "setting": "[1]", "value": "significantly inhibited"},
      {"measurement": "Inhibiting Effect on Icariin induced Relaxation of CC. (ICP changes)", "setting": "[3]; ODQ 10^−4M", "value": "80.24 ± 8.05", "unit": "%"},
      {"measurement": "Inhibiting Effect on Icariin induced Relaxation of CC. (ICP changes)", "setting": "[3]; ODQ 10^−5M", "value": "58.45 ± 6.00", "unit": "%"},
      {"measurement": "Inhibiting Effect on Icariin induced Relaxation of CC. (ICP changes)", "setting": "[3]; ODQ 10^−6M", "value": "23.09 ± 4.29", "unit": "%"},
      {"measurement": "Inhibiting Effect on Icariin induced Relaxation of CC. (ICP changes)", "setting": "[3]; ODQ 10^−7M", "value": "17.16 ± 1.77", "unit": "%"}
    ]},
    {"smiles": "COc1ccc(Cc2nccc3cc(OC)c(OC)cc23)cc1OC", "note": "[Papaverine, papaverine]", "values": [
      {"measurement": "cGMP concentration changes", "setting": "[4]; 10^−3M", "value": "11.43 ± 65", "unit": "fmol/mg/min"},
      {"measurement": "cGMP concentration changes", "setting": "[4]; 10^−4M", "value": "9.82 ± 2.16", "unit": "fmol/mg/min"},
      {"measurement": "cGMP concentration changes", "setting": "[4]; 10^−5M", "value": "8.92 ± 1.87", "unit": "fmol/mg/min"},
      {"measurement": "cGMP concentration changes", "setting": "[4]; 10^−6M", "value": "8.66 ± 2.07", "unit": "fmol/mg/min"}
    ]},
    {"smiles": "Oc1cccc(O)c1O", "note": "[Pyrogallol, pyrogallol]", "values": [
      {"measurement": "icariin induced relaxation of CC smooth muscle strips after pre-treatment with the named inhibitor", "setting": "[1]; icariin 10^−4M", "value": "15.68 ± 1.15", "unit": "%"},
      {"measurement": "icariin induced relaxation of CC smooth muscle strips after pre-treatment with the named inhibitor", "setting": "[1]; icariin 10^−5M", "value": "3.45 ± 0.73", "unit": "%"},
      {"measurement": "icariin induced relaxation of CC smooth muscle strips after pre-treatment with the named inhibitor", "setting": "[1]; icariin 10^−6M", "value": "0.85 ± 0.45", "unit": "%"},
      {"measurement": "effect of pre-treatment on the relaxation effects of icariin", "setting": "[1]", "value": "significantly inhibited"}
    ]},
    {"smiles": "C[C@](N)(Cc1ccc(O)c(O)c1)C(=O)O", "note": "[alpha-methyldopa]", "values": [
      {"measurement": "sexual dysfunction associated with the agent, % of patients", "setting": "[2]", "value": "20-30%"}
    ]},
    {"smiles": "CCCc1nn(C)c2c(=O)[nH]c(-c3cc(S(=O)(=O)N4CCN(C)CC4)ccc3OCC)nc12", "note": "[Sildenafil]", "values": [
      {"measurement": "cGMP concentration changes", "setting": "[4]; 10^−3M", "value": "12.35 ± 2.56", "unit": "fmol/mg/min"},
      {"measurement": "cGMP concentration changes", "setting": "[4]; 10^−4M", "value": "11.98 ± 2.39", "unit": "fmol/mg/min"},
      {"measurement": "cGMP concentration changes", "setting": "[4]; 10^−5M", "value": "12.69 ± 2.24", "unit": "fmol/mg/min"},
      {"measurement": "cGMP concentration changes", "setting": "[4]; 10^−6M", "value": "10.65 ± 2.28", "unit": "fmol/mg/min"},
      {"measurement": "EC50", "setting": "[4]; Oryctolagus cuniculus, read-out: EC50 (cGMP formation, CC of penis)", "value": 0.31, "unit": "µM"},
      {"measurement": "IC50", "setting": "[5]", "value": 14.6, "unit": "µM"},
      {"measurement": "cGMP concentration in clitoris CC", "setting": "[6]", "value": "significantly increased"},
      {"measurement": "EC50", "setting": "[6]; Oryctolagus cuniculus, stimulated with SNP, read-out: EC50 (cGMP formation, CC of clitoris)", "value": 0.31, "unit": "µM"}
    ]},
    {"smiles": "NS(=O)(=O)c1cc2c(cc1C(F)(F)F)NC(Cc1ccccc1)NS2(=O)=O", "note": "(stereo not drawn) [bendrofluazide]", "values": [
      {"measurement": "sexual dysfunction associated with the agent, % of patients", "setting": "[2]", "value": 36, "unit": "%"}
    ]},
    {"smiles": "COc1ccc(-c2oc3c(CC=C(C)C)c(O[C@@H]4O[C@H](CO)[C@@H](O)[C@H](O)[C@H]4O)cc(O)c3c(=O)c2O[C@@H]2O[C@@H](C)[C@H](O)[C@@H](O)[C@H]2O[C@@H]2OC[C@@H](O)[C@H](O)[C@H]2O)cc1", "note": "[epimedin B]", "values": [
      {"measurement": "relaxation effects on CC", "setting": "[1]", "value": "no significant relaxation effects"}
    ]},
    {"smiles": "COC(=O)[C@H]1[C@H]2C[C@@H]3c4[nH]c5cc(OC)ccc5c4CCN3C[C@H]2C[C@@H](OC(=O)c2cc(OC)c(OC)c(OC)c2)[C@@H]1OC", "note": "[Reserpine, reserpine]", "values": [
      {"measurement": "Inhibiting effects on ICP", "setting": "[3]; Reserpine 10^−4M intracavernosal", "value": 59.63, "unit": "%"},
      {"measurement": "Inhibiting effects on ICP", "setting": "[3]; Reserpine 10^−5M intracavernosal", "value": 33.34, "unit": "%"},
      {"measurement": "Inhibiting effects on ICP", "setting": "[3]; Reserpine 10^−6M intracavernosal", "value": 17.39, "unit": "%"},
      {"measurement": "Inhibiting effects on ICP", "setting": "[3]; Reserpine 10^−7M intracavernosal", "value": 4.81, "unit": "%"},
      {"measurement": "sexual dysfunction associated with the agent, % of patients", "setting": "[2]", "value": "30-40%"}
    ]},
    {"smiles": "COc1ccc(-c2oc3c(CC=C(C)C)c(O[C@@H]4O[C@H](CO)[C@@H](O)[C@H](O)[C@H]4O)cc(O)c3c(=O)c2O[C@@H]2O[C@@H](C)[C@H](O)[C@@H](O)[C@H]2O[C@@H]2O[C@@H](C)[C@H](O)[C@@H](O)[C@H]2O)cc1", "note": "[epimedin C]", "values": [
      {"measurement": "relaxation effects on CC", "setting": "[1]", "value": "no significant relaxation effects"}
    ]}
  ]
}
